Test results as given in patent US8889591B2, “Herbicidal compositions comprising 4-amino-3-chloro-5-fluoro-6-(4-chloro-2-fluoro-3-methoxyphenyl)pyridine-2-carboxylic acid or a derivative thereof and bromobutide, daimuron, oxaziclomefone or pyributicarb” (Dow Agrosciences LLC, priority 2012, dated 2014).

Key:
ECHOR = test: In-water applied greenhouse weed control, transplanted paddy rice system; type: in vivo, Echinochloa oryzoides (Ard.) Fritsch; conditions: in-water application
Experimental: (§1) Weed seeds or nutlets of the desired test plant species were planted in puddled soil (mud) prepared by mixing a shredded, non-sterilized mineral soil (50.5 percent silt, 25.5 percent clay, and 24 percent sand, with a pH of about 7.6 and an organic matter content of about 2.9 percent) and water at a 1:1 volumetric ratio. The prepared mud was dispensed in 365 mL aliquots into 16-ounce (oz.) non-perforated plastic pots with a surface area of 86.59 square centimeters (cm^2) leaving a headspace of 3 centimeters (cm) in each pot. Mud was allowed to dry overnight prior to planting or transplanting. Rice seeds were planted in Sun Gro MetroMix® 306 planting mixture, which typically has a pH of 6.0 to 6.8 and an organic matter content of about 30 percent, in plastic plug trays. Seedlings at the second or third leaf stage of growth were transplanted into 840 mL of mud contained in 32-oz. non-perforated plastic pots with a surface area of 86.59 cm^2 4 days prior to herbicide application. The paddy was created by filling the headspace of the pots with 2.5 to 3 cm of water. When required to ensure good germination and healthy plants, a fungicide treatment and/or other chemical or physical treatment was applied. The plants were grown for 4-22 days in a greenhouse with an approximate 14 h photoperiod which was maintained at about 29° C. during the day and 26° C. during the night. Nutrients were added as Osmocote® (19:6:12, N:P:K+ minor nutrients) at 2 g per 16-oz. pot and 4 g per 32-oz. pot. Water was added on a regular basis to maintain the paddy flood, and supplemental lighting was provided with overhead metal halide 1000-Watt lamps as necessary. The plants were employed for testing when they reached the first through fourth true leaf stage.
(§2) Treatments consisted of the acid or esters of 4-amino-3-chloro-5-fluoro-6-(4-chloro-2-fluoro-3-methoxy-phenyl)pyridine-2-carboxylic acid (compound A) each formulated as an SC and various herbicidal components alone and in combination. Forms of compound A were applied on an acid equivalent basis.
(§3) Other herbicidal components were applied on an active ingredient basis and included daimuron formulated as an EC, bromobutide (technical grade material), and oxaziclomefone (technical grade material).
(§4) Treatment requirements for each compound or herbicidal component were calculated based upon the rates being tested, the concentration of active ingredient or acid equivalent in the formulation, an application volume of 2 mL per component per pot, and an application area of 86.59 cm^2 per pot.
(§5) For formulated compounds, a measured amount was placed in an individual 100 or 200 mL glass vial and was dissolved in a volume of 1.25% (v/v) Agri-Dex® crop oil concentrate to obtain application solutions.
(§6) For technical grade compounds, a weighed amount was placed in an individual 100 to 200 mL glass vial and was dissolved in a volume of acetone to obtain concentrated stock solutions. […] The concentrated stock solutions obtained were diluted with an equivalent volume of an aqueous mixture containing 2.5% (v/v) crop oil concentrate so that the final application solutions contained 1.25% (v/v) crop oil concentrate.
(§7) Applications were made by injecting, with a pipetter, appropriate amounts of the application solutions, individually and sequentially, into the aqueous layer of the paddy. Control plants were treated in the same manner with the solvent blank. Applications were made so that all treated plant material received the same concentrations of acetone and crop oil concentrate.
(§8) The treated plants and control plants were placed in a greenhouse as described above and water was added as needed to maintain a paddy flood. After approximately 3 weeks the condition of the test plants as compared with that of the untreated plants was determined visually and scored on a scale of 0 to 100 percent where 0 corresponds to no injury or growth inhibition and 100 corresponds to complete kill. […]

BRAPP = test: Postemergence foliar-applied greenhouse weed control, direct-seeded rice system; type: in vivo; conditions: Compound A Acid 4.38 gae/ha alone
Source text: (§9) Seeds or nutlets of the desired test plant species were planted in a soil matrix prepared by mixing a loam or sandy loam soil (e.g., 28.6 percent silt, 18.8 percent clay, and 52.6 percent sand, with a pH of about 5.8 and an organic matter content of about 1.8 percent) and calcareous grit in an 80 to 20 ratio. The soil matrix was contained in plastic pots with a volume of 1 quart and a surface area of 83.6 square centimeters (cm^2). When required to ensure good germination and healthy plants, a fungicide treatment and/or other chemical or physical treatment was applied. The plants were grown for 8-22 days in a greenhouse with an approximate 14 h photoperiod which was maintained at about 29° C. during the day and 26° C. during the night. Nutrients (Peters Excel® 15-5-15 5-Ca 2-Mg and iron chelate) were applied in the irrigation solution as needed and water was added on a regular basis. Supplemental lighting was provided with overhead metal halide 1000-Watt lamps as necessary. The plants were employed for testing when they reached the first through fourth true leaf stage.
as §2, with “(Compound A),” for “(compound A)”, “SC (suspension concentrate),” for “SC”
(§10) Other herbicidal components were applied on an active ingredient basis and included diamuron formulated as an EC (emulsifiable concentrate) and oxaziclomefone (technical grade material).
(§11) Treatment requirements were calculated based upon the rates being tested, the concentration of active ingredient or acid equivalent in the formulation, and a 12 mL application volume at a rate of 187 L/ha.
(§12) For treatments comprised of formulated compounds, measured amounts of compounds were placed individually in 25 mL glass vials and diluted in a volume of 1.25% (v/v) Agri-Dex® crop oil concentrated to obtain 12× stock solutions. […] Application solutions were prepared by adding an appropriate amount of each stock solution (e.g., 1 mL) and diluted to the appropriate final concentrations with the addition of 10 mL of an aqueous mixture of 1.25% (v/v) crop oil concentrate so that the final spray solutions contained 1.25+/−0.05% (v/v) crop oil concentrate.
(§13) For treatments comprised of technical compounds, weighed amounts can be placed individually in 25 mL glass vials and dissolved in a volume of 97:3 v/v acetone/DMSO to obtain 12× stock solutions. […] Application solutions can be prepared by adding an appropriate amount of each stock solution (e.g., 1 mL) and diluted to the appropriate final concentrations with the addition of 10 mL of an aqueous mixture of 1.5% (v/v) crop oil concentrate so that the final spray solutions contain 1.25% (v/v) crop oil concentrate. When technical materials are used, the concentrated stock solutions can be added to the spray solutions so that the final acetone and DMSO concentrations of the application solutions are 16.2% and 0.5%, respectively.
(§14) For treatments comprised of formulated and technical compounds, weighed amounts of the technical materials were placed individually in 25 mL glass vials and dissolved in a volume of 97:3 v/v acetone/DMSO to obtain 12× stock solutions, and measured amounts of the formulated compounds were placed individually in 25 mL glass vials and diluted in a volume of 1.5% (v/v) crop oil concentrate or water to obtain 12× stock solutions. […] Application solutions were prepared by adding an appropriate amount of each stock solution (e.g., 1 mL) and diluted to the appropriate final concentrations with the addition of an appropriate amount of an aqueous mixture of 1.5% (v/v) crop oil concentrate so that the final spray solutions contained 1.25% (v/v) crop oil concentrate. […]

IPOHE = test: as above; type: in vivo, Ipomoea hederacea Jacq.
Source text: as §9
as §2, with “(Compound A),” for “(compound A)”, “SC (suspension concentrate),” for “SC”
as §10, §11, §12, §13, §14

ECHCO = test: as above; type: in vivo, Echinochloa colona (L.) Link
Source text: as §9
as §2, with “(Compound A),” for “(compound A)”, “SC (suspension concentrate),” for “SC”
as §10, §11, §12, §13, §14

ECHCG = test: as above; type: in vivo, Echinochloa crusgalli (L.) Beauv.
Source text: as §9
as §2, with “(Compound A),” for “(compound A)”, “SC (suspension concentrate),” for “SC”
as §10, §11, §12, §13, §14

LEFCH = test: as above; type: in vivo, Leptochloa chinensis (L.) Nees
Source text: as §9
as §2, with “(Compound A),” for “(compound A)”, “SC (suspension concentrate),” for “SC”
as §10, §11, §12, §13, §14

CYPRO = test: In-water applied greenhouse weed control, transplanted paddy rice system; type: in vivo, Cyperus rotundus L.; conditions: in-water application
Experimental: as §1, §2, §3, §4, §5, §6, §7, §8

FIMMI = test: as above; type: in vivo, Fimbristylis miliacea (L.) Vahl; conditions: in-water application
Experimental: as §1, §2, §3, §4, §5, §6, §7, §8

[1] = Compound A Acid 8.75 gae/ha alone
[2] = Compound A Acid 17.5 gae/ha alone
[3] = Compound A Acid 35 gae/ha alone
[4] = Compound A Acid 4.38 gae/ha alone

With `COc1c(Cl)ccc(-c2nc(C(=O)O)c(Cl)c(N)c2F)c1F` [Compound A Acid, 4-amino-3-chloro-6-(4-chloro-2-fluoro-3-methoxyphenyl)-5-fluoropyridine-2-carboxylic acid] the “Visual Weed Control (%) - 20 DAA ECHOR Obs” value (ECHOR; [1]) was 20%, the “Visual Weed Control (%) - 20 DAA ECHOR Obs” value (ECHOR; [2]) was 30% and the “Visual Weed Control (%) - 20 DAA ECHOR Obs” value (ECHOR; [3]) was 40%. The “Visual Weed Control (%) - 20 DAA BRAPP Obs” value (BRAPP) was 10%, the “Visual Weed Control (%) - 20 DAA IPOHE Obs” value (IPOHE; [4]) was 10% and the “Visual Weed Control (%) - 20 DAA IPOHE Obs” value (IPOHE; [1]) was 35%. For the same compound, the “Visual Weed Control (%) - 20 DAA ECHCO Obs” value (ECHCO; [4]) was 50%, the “Visual Weed Control (%) - 20 DAA ECHCO Obs” value (ECHCO; [1]) was 75% and the “Visual Weed Control (%) - 20 DAA ECHCO Obs” value (ECHCO; [2]) was 90%. For the same compound, the “Visual Weed Control (%) - 20 DAA ECHCG Obs” value (ECHCG; [4]) was 25%, the “Visual Weed Control (%) - 20 DAA ECHCG Obs” value (ECHCG; [1]) was 80% and the “Visual Weed Control (%) - 20 DAA LEFCH Obs” value (LEFCH; [4]) was 0%. For the same compound, the “Visual Weed Control (%) - 20 DAA LEFCH Obs” value (LEFCH; [1]) was 20%, the “Visual Weed Control (%) - 20 DAA LEFCH Obs” value (LEFCH; [2]) was 50% and the “Visual Weed Control (%) - 21 DAA CYPRO Obs” value (CYPRO; [2]) was 40%. The “Visual Weed Control (%) - 21 DAA CYPRO Obs” value (CYPRO; [3]) was 70%.
In the case of `CC(C)(NC(=O)C(Br)C(C)(C)C)c1ccccc1` (centres unmarked) [Bromobutide, 2-bromo-3,3-dimethyl-N-(1-methyl-1-phenylethyl)butanamide], the “Visual Weed Control (%) - 19 DAA CYPRO Obs” value (CYPRO; Bromobutide 225 gai/ha alone) was 0%, the “Visual Weed Control (%) - 19 DAA CYPRO Obs” value (CYPRO; Bromobutide 450 gai/ha alone) was 0% and the “Visual Weed Control (%) - 19 DAA FIMMI Obs” value (FIMMI; Bromobutide 225 gai/ha alone) was 0%. The “Visual Weed Control (%) - 19 DAA FIMMI Obs” value (FIMMI; Bromobutide 450 gai/ha alone) was 15%.
